The record followed here is patent US20190225650A1, “PEPTIDOMIMETIC MACROCYCLES AND USE THEREOF IN REGULATING HIF1ALPHA” (AILERON THERAPEUTICS, INC., priority 2013, published 2019).

Assay [1] has as its system HRE-bla ME-180 cells. Description: Reporter gene assay (HRE-bla ME-180 HIF reporter, GeneBLAzer). The conditions noted are these: for EC50: 24 hour normoxia. Format: cell-based, human. In short, it runs like this:
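A FRET β-lactamase readout of HIF transcription was used. After compound treatment in 0.3% DMSO/media under normoxic conditions, 20 μl of 6× LiveBLAzer-FRET B/G (CCF4-AM) substrate was added. Plates sat 3 hr at room temperature in the dark and were read at 409 Ex/460Em and 409Ex/530Em on a Synergy 2. Inhibition was compared against DMSO vehicle controls, with chetomin as positive control.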

The target in assay [2] is T1, flag-tagged HIF1α (AA 786-826) / His6-tagged p300 (AA 323-423) complex (Homo sapiens, UniProt Q09472).
T1 construct: His6-tagged p300 (AA 323-423); made in house; host or cells: E. coli (pETDuet vector)
Description: HIF1α p300 displacement assay (TR FRET, +CHAPS). Format: binding. Particulars: read-out: IC50 (nM) (HIF1α_p300 Displacement + CHAPS). An outline of the steps:
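In this TR-FRET displacement format, peptides compete HIF1α C-terminal transactivation domain off p300-CH. They were preincubated 1 h at room temperature with 300 nM complex in HEPES pH 7.4/NaCl buffer with 7.5 mM CHAPS and 1 mM DTT. Anti-His-D2 (4 nM) and anti-Flag-K (0.5 μM) followed for 2 h, and a one-site fit of the fluorescence ratio gave IC50.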

Assay [3] has as its system HRE-bla ME-180 cells. Description: Cell proliferation assay (viability, MTT, 1% FBS). The format is cell-based, human. In short, it runs like this:
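Viable cell number was measured with the CellTiter 96 (MTT) kit after compounds were applied for a 16 h normoxic (21% O2) pretreatment, followed by further normoxic or hypoxic (1% O2) culture. Cells: 2×10^4 ME-180 per well, Opti-MEM + 1% FBS, 0.5% DMSO vehicle.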

Bridge positions count the residues as written; N and C are the ends. Square brackets hold non-standard residues; d marks the D form. Peptide text beside a SMILES is read from it. R8 = C=CCCCCCC[C@@](C)(N)C(=O)O; S5 = C=CCCC[C@](C)(N)C(=O)O; Nle = CCCC[C@H](N)C(=O)O

Regarding `CCCC[C@H](NC(=O)[C@]1(C)CCCC=CCCC[C@](C)(NC(=O)[C@H](CCCC)NC(=O)[C@H](CC(C)C)NC(=O)[C@@H](NC(=O)[C@H](CCC(=O)O)NC(=O)[C@H](C)NC(=O)[C@H](CC(=O)O)NC(=O)[C@@H](NC(=O)[C@H](CC(N)=O)NC(=O)[C@@H](NC(=O)[C@]2(C)CCCC=CCCCCCC[C@@](C)(NC(=O)[C@H](CCC(=O)O)NC(=O)CNC(=O)[C@H](CCC(N)=O)NC(=O)[C@H](CC(C)C)NC(=O)[C@H](CC(C)C)NC(C)=O)C(=O)N[C@@H](CC(C)C)C(=O)N[C@@H](CC(C)C)C(=O)N[C@@H](CCCNC(=N)N)C(=O)N[C@@H](C)C(=O)N[C@@H](CC(C)C)C(=O)N[C@@H](CC(=O)O)C(=O)N2)C(C)C)[C@@H](C)CC)C(C)C)C(=O)N[C@@H](CC(C)C)C(=O)N[C@@H](C(C)C)C(=O)N[C@@H]([C@@H](C)CC)C(=O)N1)C(N)=O` [SP-346] (Ac-LLQGE[R8]LLRALD[S5]VNIDAEVL[Nle][S5]LVI[S5][Nle]-NH2; staple 6-13, 23-27), in the assay with HRE-bla ME-180 cells [1], the “18 h Avg % max inhibition at top conc (HIF Rptr-24 hrs normoxia) (μM)” value (“18 h Avg % max inhibition at top conc” for short) is “++ (≤10 but <25: ++)” and the EC50 was greater than 30 µM. Further, in assay [2], the IC50 is no more than 200 nM. Besides, the “Viability 1% FBS AVG (MTT V3-24 hr Normoxia) (μM)” value (shortened to “Viability 1% FBS AVG”) in the assay on HRE-bla ME-180 cells [3] is reported as “++++ (≥30: ++++)”.

With `CCCC[C@H](NC(=O)[C@]1(C)CCCC=CCCC[C@](C)(NC(=O)[C@H](CCCC)NC(=O)[C@H](CC(C)C)NC(=O)[C@@H](NC(=O)[C@H](C)NC(=O)[C@H](CCC(=O)O)NC(=O)[C@H](CC(=O)O)NC(=O)[C@@H](NC(=O)[C@H](CC(N)=O)NC(=O)[C@@H](NC(=O)[C@]2(C)CCCC=CCCCCCC[C@@](C)(NC(=O)[C@H](CCC(=O)O)NC(=O)CNC(=O)[C@H](CCC(N)=O)NC(=O)[C@H](CC(C)C)NC(=O)[C@H](CC(C)C)NC(C)=O)C(=O)N[C@@H](CC(C)C)C(=O)N[C@@H](CC(C)C)C(=O)N[C@@H](CCCNC(=N)N)C(=O)N[C@@H](C)C(=O)N[C@@H](CC(C)C)C(=O)N[C@@H](CC(=O)O)C(=O)N2)C(C)C)[C@@H](C)CC)C(C)C)C(=O)N[C@@H](CC(C)C)C(=O)N[C@@H](C(C)C)C(=O)N[C@@H]([C@@H](C)CC)C(=O)N1)C(N)=O` [SP-347] (Ac-LLQGE[R8]LLRALD[S5]VNIDEAVL[Nle][S5]LVI[S5][Nle]-NH2; staple 6-13, 23-27), in the assay on HRE-bla ME-180 cells [1], the “18 h Avg % max inhibition at top conc” value is listed as “+++ (≤25 but <50: +++)” and the EC50 was greater than 30 µM. Besides, the IC50 in assay [2] is 400 to 700 nM. The “Viability 1% FBS AVG” value in the assay on HRE-bla ME-180 cells [3] was “++++ (≥30: ++++)”.

For the compound `CCCC[C@H](NC(=O)[C@]1(C)CCCC=CCCC[C@](C)(NC(=O)[C@H](CCCC)NC(=O)[C@H](CC(C)C)NC(=O)[C@@H](NC(=O)[C@H](CCC(=O)O)NC(=O)[C@H](CCC(=O)O)NC(=O)[C@H](C)NC(=O)[C@@H](NC(=O)[C@H](CC(N)=O)NC(=O)[C@@H](NC(=O)[C@]2(C)CCCC=CCCCCCC[C@@](C)(NC(=O)[C@H](CCC(=O)O)NC(=O)CNC(=O)[C@H](CCC(N)=O)NC(=O)[C@H](CC(C)C)NC(=O)[C@H](CC(C)C)NC(C)=O)C(=O)N[C@@H](CC(C)C)C(=O)N[C@@H](CC(C)C)C(=O)N[C@@H](CCCNC(=N)N)C(=O)N[C@@H](C)C(=O)N[C@@H](CC(C)C)C(=O)N[C@@H](CC(=O)O)C(=O)N2)C(C)C)[C@@H](C)CC)C(C)C)C(=O)N[C@@H](CC(C)C)C(=O)N[C@@H](C(C)C)C(=O)N[C@@H]([C@@H](C)CC)C(=O)N1)C(N)=O` [SP-349] (Ac-LLQGE[R8]LLRALD[S5]VNIAEEVL[Nle][S5]LVI[S5][Nle]-NH2; staple 6-13, 23-27), in the assay on HRE-bla ME-180 cells [1], the “18 h Avg % max inhibition at top conc” value is given as “+++ (≤25 but <50: +++)” and the EC50 is greater than 30 µM. Besides, in assay [2], the IC50 was no more than 200 nM. Besides, the “Viability 1% FBS AVG” value with HRE-bla ME-180 cells [3] is given as “++++ (≥30: ++++)”.

For the compound `CCCC[C@H](NC(=O)[C@]1(C)CCCC=CCCC[C@](C)(NC(=O)[C@H](CCCC)NC(=O)[C@H](CC(C)C)NC(=O)[C@@H](NC(=O)[C@H](CCC(=O)O)NC(=O)[C@H](CCC(=O)O)NC(=O)[C@H](CC(=O)O)NC(=O)[C@@H](NC(=O)[C@H](CC(N)=O)NC(=O)[C@@H](NC(=O)[C@]2(C)CCCC=CCCCCCC[C@@](C)(NC(=O)[C@H](CCC(=O)O)NC(C)=O)C(=O)N[C@@H](CC(C)C)C(=O)N[C@@H](CC(C)C)C(=O)N[C@@H](CCCNC(=N)N)C(=O)N[C@@H](C)C(=O)N[C@@H](CC(C)C)C(=O)N[C@@H](CC(=O)O)C(=O)N2)C(C)C)[C@@H](C)CC)C(C)C)C(=O)N[C@@H](CC(C)C)C(=O)N[C@@H](C(C)C)C(=O)N[C@@H]([C@@H](C)CC)C(=O)N1)C(N)=O` [SP-351] (Ac-E[R8]LLRALD[S5]VNIDEEVL[Nle][S5]LVI[S5][Nle]-NH2; staple 2-9, 19-23), in the assay on HRE-bla ME-180 cells [1], the “18 h Avg % max inhibition at top conc” value is reported as “++ (≤10 but <25: ++)” and the half-maximal effective concentration (EC50) is greater than 30 µM. Moreover, the IC50 in assay [2] was 200 to 400 nM. Further, the “Viability 1% FBS AVG” value in the assay on HRE-bla ME-180 cells [3] is recorded as “++++ (≥30: ++++)”.

For the compound `CCCC[C@H](NC(=O)[C@H](CCC(=O)O)NC(=O)[C@]1(C)CCCC=CCCCCCC[C@@](C)(NC(=O)[C@H](CCC(=O)O)NC(=O)[C@H](C)NC(=O)[C@H](C)NC(=O)[C@H](C)NC(=O)[C@H](C)NC(=O)[C@]2(C)CCCC=CCCCCCC[C@@](C)(NC(=O)[C@H](CCC(=O)O)NC(=O)CNC(=O)[C@H](CCC(N)=O)NC(=O)[C@H](CC(C)C)NC(=O)[C@H](CC(C)C)NC(C)=O)C(=O)N[C@@H](CC(C)C)C(=O)N[C@@H](CC(C)C)C(=O)N[C@@H](CCCNC(=N)N)C(=O)N[C@@H](C)C(=O)N[C@@H](CC(C)C)C(=O)N[C@@H](CC(=O)O)C(=O)N2)C(=O)N[C@@H](C(C)C)C(=O)N[C@@H](CC(C)C)C(=O)N[C@@H](CCCC)C(=O)N[C@@H](CO)C(=O)N[C@@H](CC(C)C)C(=O)N[C@@H](C(C)C)C(=O)N1)C(N)=O` [SP-352] (Ac-LLQGE[R8]LLRALD[S5]AAAAE[R8]VL[Nle]SLV[S5]E[Nle]-NH2; staple 6-13, 19-26), in the assay on HRE-bla ME-180 cells [1], the “18 h Avg % max inhibition at top conc” value is “++ (≤10 but <25: ++)” and the EC50 was greater than 30 µM. In addition, the IC50 in assay [2] was no more than 200 nM. Further, the “Viability 1% FBS AVG” value in the assay with HRE-bla ME-180 cells [3] is “++++ (≥30: ++++)”.

Regarding `CCCC[C@H](NC(=O)[C@H](CCC(=O)O)NC(=O)[C@]1(C)CCCC=CCCCCCC[C@@](C)(NC(=O)[C@H](CCC(=O)O)NC(=O)[C@H](CC(=O)O)NC(=O)[C@@H](NC(=O)[C@H](CC(N)=O)NC(=O)[C@@H](NC(=O)[C@]2(C)CCCC=CCCCCCC[C@@](C)(NC(=O)[C@H](C)NC(=O)CNC(=O)[C@H](CCC(N)=O)NC(=O)[C@H](CC(C)C)NC(=O)[C@H](CC(C)C)NC(C)=O)C(=O)N[C@@H](CC(C)C)C(=O)N[C@@H](CC(C)C)C(=O)N[C@@H](CCCNC(=N)N)C(=O)N[C@@H](C)C(=O)N[C@@H](CC(C)C)C(=O)N[C@@H](CC(=O)O)C(=O)N2)C(C)C)[C@@H](C)CC)C(=O)N[C@@H](C(C)C)C(=O)N[C@@H](CC(C)C)C(=O)N[C@@H](CCCC)C(=O)N[C@@H](CO)C(=O)N[C@@H](CC(C)C)C(=O)N[C@@H](C(C)C)C(=O)N1)C(N)=O` [SP-353] (Ac-LLQGA[R8]LLRALD[S5]VNIDE[R8]VL[Nle]SLV[S5]E[Nle]-NH2; staple 6-13, 19-26), in the assay on HRE-bla ME-180 cells [1], the “18 h Avg % max inhibition at top conc” value is “+++ (≤25 but <50: +++)” and the 50% effective concentration (EC50) was greater than 30 µM. Further, in assay [2], the IC50 is no more than 200 nM. Moreover, the “Viability 1% FBS AVG” value with HRE-bla ME-180 cells [3] is “++++ (≥30: ++++)”.
